Experimental data from ChEMBL document CHEMBL1157412, “Cytotoxic alkaloids and antibiotic nordammarane triterpenoids from the marine-derived fungus Aspergillus sydowi” (J Nat Prod, 2008).
In brackets after ≈: the same amount, converted by molar mass.

What was measured:
[1] = test system: Micrococcus luteus; assay: Antimicrobial activity against Micrococcus lysodeikticus after 24 hrs by disk diffusion method; assay type: functional
[2] = test system: Escherichia coli; assay: Antimicrobial activity against Escherichia coli after 24 hrs by disk diffusion method; assay type: functional
[3] = test system: Bacillus subtilis; assay: Antimicrobial activity against Bacillus subtilis after 24 hrs by disk diffusion method; assay type: functional
[4] = test system: HL-60; assay: Cytotoxicity against human HL60 cells after 72 hrs by MTT assay; assay type: functional, cell-based; conditions: HL-60, 72 h
[5] = test system: A549; assay: Cytotoxicity against human A549 cells after 72 hrs by MTT assay; assay type: functional, cell-based; conditions: A549, 72 h

CC(=O)O[C@H]1C[C@@]2(C)[C@@H](CC[C@H]3[C@@]4(C)C=CC(=O)[C@@H](C)[C@@H]4[C@H](OC(C)=O)C(=O)[C@@]32C)/C1=C(\CCC=C(C)C)C(=O)O [HELVOLIC ACID]
MIC [1]: 11 µM (≈ 6.25 µg/mL)
MIC [2]: 87.9 µM (≈ 50 µg/mL)
MIC [3]: 22 µM (≈ 12.5 µg/mL)

COc1ccc2c(c1)NC(=O)[C@@]21C=C2C(=O)N3CCC[C@H]3C(=O)N2[C@H]1C=C(C)C [SPIROTRYPROSTATIN B]
IC50 [4]: 9.71 µM
IC50 [5]: 8.29 µM

COc1ccc2c(C[C@@H]3NC(=O)[C@@H]4CCCN4C3=O)c(C(=O)C=C(C)C)[nH]c2c1 [18-OXOTRYPROSTATIN A]
IC50 [5]: 1.28 µM

CC(C)=CCc1cccc2c(C[C@H]3C(=O)N[C@@H](C)C(=O)N3O)c[nH]c12
IC50 [5]: 7.31 µM

C/C=C\[C@H](O)[C@H](O)C1=C(C)C(=O)[C@]2(O1)C(=O)N[C@@](OC)(C(=O)c1ccccc1)[C@@H]2O [14-NORPSEUROTIN A]
MIC [1]: 7.49 µM (≈ 3.13 µg/mL)
MIC [2]: 3.74 µM (≈ 1.56 µg/mL)
MIC [3]: 15 µM (≈ 6.25 µg/mL)

CC(=O)O[C@H]1C[C@@]2(C)[C@@H](CC[C@H]3[C@@]4(C)C=CC(=O)[C@@H](C)[C@@H]4[C@H](OC(C)=O)C(=O)[C@@]32C)/C1=C(\CCCC(C)(C)O)C(=O)O
MIC [1]: 10.7 µM (≈ 6.25 µg/mL)
MIC [2]: 10.7 µM (≈ 6.25 µg/mL)
MIC [3]: 5.33 µM (≈ 3.13 µg/mL)

CC/C=C\[C@H](O)[C@H](O)C1=C(C)C(=O)[C@]2(O1)C(=O)N[C@@](OC)(C(=O)c1ccccc1)[C@@H]2O [PSEUROTIN A]
MIC [1]: 7.42 µM (≈ 3.2 µg/mL)
MIC [2]: 14.5 µM (≈ 6.25 µg/mL)
MIC [3]: 14.5 µM (≈ 6.25 µg/mL)
